Laboratory results published in ChEMBL document CHEMBL5058564, “EUbOPEN Chemogenomics Library 2 (Incucyte)” (2022).
Where a SMILES comes first, the peptide text is derived from it. [ ]: non-standard residue; d: D form. Arg(Me) = CNC(=N)NCCC[C@H](N)C(=O)O; d3Pal = N[C@H](Cc1cccnc1)C(=O)O; azaGly = NNC(=O)O

Experiments:
Type in all cases: toxicity, cell-based
HEK-293T = test: Incucyte cell viability with HEK293T; details: human, 10 µM, compound concentration 10 uM
Fibroblast = test: Incucyte cell viability with human fibroblast; details: 10 µM, compound concentration 10 uM
U2OS = test: Incucyte cell viability with U2OS; details: human, 10 µM, compound concentration 10 uM
[1] = 6 h, replicate number 1, timepoint 6 hours
[2] = 6 h, replicate number 2, timepoint 6 hours
[3] = 12 h, replicate number 1, timepoint 12 hours
[4] = 12 h, replicate number 2, timepoint 12 hours
[5] = 18 h, replicate number 1, timepoint 18 hours
[6] = 24 h, replicate number 1, timepoint 24 hours
[7] = 0 h, replicate number 1, timepoint 0 hours
[8] = 0 h, replicate number 2, timepoint 0 hours
[9] = 18 h, replicate number 2, timepoint 18 hours
[10] = 24 h, replicate number 2, timepoint 24 hours
Also: unitless GR value; below 1 slowed growth and below 0 cell loss.

Compound | Growth Rate (HEK-293T; [1]) | Growth Rate (HEK-293T; [2]) | Growth Rate (HEK-293T; [3]) | Growth Rate (HEK-293T; [4]) | Growth Rate (HEK-293T; [5]) | Growth Rate (HEK-293T; [6]) | Growth Rate (Fibroblast; [1]) | Growth Rate (Fibroblast; [2]) | Growth Rate (Fibroblast; [3]) | Growth Rate (Fibroblast; [4]) | Growth Rate (Fibroblast; [5]) | Growth Rate (Fibroblast; [6]) | Growth Rate (U2OS; [7]) | Growth Rate (U2OS; [8]) | Growth Rate (U2OS; [9]) | Growth Rate (U2OS; [1]) | Growth Rate (U2OS; [4]) | Growth Rate (U2OS; [5]) | Growth Rate (U2OS; [2]) | Growth Rate (U2OS; [10]) | further results
O=C(NCCN1CCC(n2c(=O)[nH]c3cc(Cl)ccc32)CC1)c1ccc(F)cc1 [HALOPEMIDE] | -0.01 | 0.96 | 0.56 | 0.68 | 0.67 | 0.5 | -0.01 | 0.12 | -0.23 | 0.66 | -0.17 | -0.39 | 0.7 | 0.14 | 1 | – | – | – | – | – | –
Cl.Cl.NCCc1c[nH]cn1 [HISTAMINE DIHYDROCHLORIDE] | 0.99 | – | 0.79 | – | 0.83 | 0.82 | – | – | 0.77 | 1 | 0.99 | 0.52 | 0.04 | 0.37 | – | 0.35 | 0.97 | 0.74 | – | – | Growth Rate (HEK-293T; [7]): 0.54; Growth Rate (HEK-293T; [8]): 0.62; Growth Rate (HEK-293T; [9]): 0.79; Growth Rate (HEK-293T; [10]): 0.75; Growth Rate (Fibroblast; [7]): 0.45; Growth Rate (Fibroblast; [9]): 0.87; Growth Rate (Fibroblast; [10]): 0.76; Growth Rate (U2OS; [3]): 0.76
Cl.Cl.OCCOCCN1CCN(C(c2ccccc2)c2ccc(Cl)cc2)CC1 (stereo unspecified) [HYDROXYZINE HYDROCHLORIDE] | 0.77 | 0.15 | 0.52 | 0.45 | 0.19 | 0.04 | 0.49 | – | 0.82 | – | 0.88 | 0.77 | – | -1 | – | 0.46 | – | – | – | – | Growth Rate (HEK-293T; [9]): 0.39; Growth Rate (HEK-293T; [10]): 0.32; Growth Rate (Fibroblast; [8]): 0.31
CNC(=O)[C@H]1O[C@@H](n2cnc3c(NCc4cccc(I)c4)ncnc32)[C@H](O)[C@@H]1O [IB-MECA] | – | – | – | 1 | 0.64 | 0.64 | 0.12 | -0.56 | 0.45 | 0.1 | 0.7 | 0.54 | -0.65 | -0.98 | 0.76 | 0.98 | 0.85 | 0.79 | 0.82 | 0.81 | Growth Rate (HEK-293T; [7]): 0.11; Growth Rate (HEK-293T; [8]): 0.3; Growth Rate (HEK-293T; [9]): 0.98; Growth Rate (HEK-293T; [10]): 0.83; Growth Rate (Fibroblast; [7]): 0.22; Growth Rate (Fibroblast; [9]): 0.24; Growth Rate (Fibroblast; [10]): 0.42; Growth Rate (U2OS; [3]): 0.89
CC[C@H](Nc1ncnc2[nH]cnc12)c1nc2cccc(F)c2c(=O)n1-c1ccccc1 [IDELALISIB] | 0.2 | 0.76 | 0.52 | 0.57 | 0.56 | 0.64 | -0.73 | 0.36 | -0.05 | 0.48 | -0.04 | -0.13 | 0.06 | -0.03 | 0.68 | 0.46 | 0.55 | 0.44 | 0.59 | 0.73 | Growth Rate (HEK-293T; [9]): 0.7; Growth Rate (HEK-293T; [10]): 0.68; Growth Rate (Fibroblast; [9]): 0.59; Growth Rate (Fibroblast; [10]): 0.75; Growth Rate (U2OS; [3]): 0.4; Growth Rate (U2OS; [6]): 0.59
O=S(=O)(c1ccccc1)c1cnc2c(N3CCNCC3)cccc2c1 [INTEPIRDINE] | – | – | – | – | – | – | 0.23 | – | 0.57 | – | 0.61 | 0.42 | -0.78 | – | 0.82 | – | 0.78 | – | 0.23 | 0.84 | Growth Rate (HEK-293T; [7]): 1; Growth Rate (HEK-293T; [8]): 0.98; Growth Rate (Fibroblast; [7]): 0.87; Growth Rate (Fibroblast; [8]): 0.36; Growth Rate (Fibroblast; [9]): 0.94; Growth Rate (Fibroblast; [10]): 0.98
COc1ccc2[nH]c(I)c(CCNC(C)=O)c2c1 [IODOMELATONIN] | 0.9 | 0.72 | – | – | – | – | 0.67 | 0.7 | 0.97 | – | – | – | – | -0.81 | 0.91 | – | 0.99 | 0.84 | 0.81 | 0.91 | Growth Rate (HEK-293T; [8]): 0.55; Growth Rate (Fibroblast; [9]): 0.79
CCCCC1=NC2(CCCC2)C(=O)N1Cc1ccc(-c2ccccc2-c2nnn[nH]2)cc1 [IRBESARTAN] | – | – | – | – | 0.86 | 0.68 | -0.26 | 0.66 | -0.32 | 0.98 | 0.01 | 0.09 | – | -1 | 0.95 | 0.3 | – | 0.72 | 0.94 | 0.92 | Growth Rate (HEK-293T; [7]): 0.8; Growth Rate (HEK-293T; [8]): 0.31; Growth Rate (Fibroblast; [7]): 0.38; Growth Rate (Fibroblast; [8]): 0.58; Growth Rate (U2OS; [3]): 0.97; Growth Rate (U2OS; [6]): 0.87
c1cc(OCCCN2CCCCC2)ccc1CN1CCCCC1 [JNJ-5207852] | – | 0.82 | – | – | – | – | 0.31 | – | – | 0.6 | – | 0.68 | -0.13 | – | 0.94 | – | 0.92 | – | 0.76 | – | Growth Rate (Fibroblast; [7]): 0.03
CNC(=N)NCCC[C@H](NC(=O)[C@H](CC(C)C)NC(=O)NNC(=O)[C@H](Cc1ccccc1)NC(=O)[C@H](CO)NC(=O)[C@H](CC(N)=O)NC(=O)[C@@H](Cc1cccnc1)NC(=O)[C@H](N)Cc1ccc(O)cc1)C(=O)NCC(N)=O [KISS1-543] (H-[dY][d3Pal]NSF[azaGly]L[Arg(Me)]G-NH2) | 0.69 | – | 0.68 | – | 0.68 | 0.71 | – | 0.8 | 0.41 | – | 0.5 | 0.46 | – | 0.72 | 0.99 | 0.84 | 0.89 | – | – | 1 | Growth Rate (HEK-293T; [7]): 0.75; Growth Rate (HEK-293T; [8]): 0.71; Growth Rate (HEK-293T; [10]): 0.84; Growth Rate (Fibroblast; [8]): 0.66; Growth Rate (Fibroblast; [9]): 0.76; Growth Rate (Fibroblast; [10]): 0.72
CCCCCCNC(=O)Nc1ccc(S(=O)(=O)Nc2ccc(CCNC[C@H](O)COc3ccc(O)cc3)cc2)cc1 [L-755507] | – | 0.53 | – | 0.94 | – | – | 0.91 | -0.46 | – | 0.47 | – | – | – | – | 0.79 | 0.25 | 0.7 | 0.87 | 0.75 | 0.89 | Growth Rate (HEK-293T; [7]): 0.4; Growth Rate (Fibroblast; [7]): 0.5; Growth Rate (Fibroblast; [8]): 0.79; Growth Rate (U2OS; [3]): 0.32; Growth Rate (U2OS; [6]): 0.87
CCC(=O)N1CC[C@H](Nc2ncnc3c2CN(c2cnc(OC)c(C(F)(F)F)c2)CC3)C1 [LENIOLISIB] | 0.27 | -0.14 | 0.69 | 0.28 | 0.81 | 0.96 | -0.68 | 0.91 | 0.26 | – | 0.75 | 0.72 | 0.57 | 0.52 | 0.79 | 0.65 | 0.58 | 0.83 | 0.66 | 0.79 | Growth Rate (HEK-293T; [9]): 0.66; Growth Rate (HEK-293T; [10]): 0.71; Growth Rate (U2OS; [6]): 0.81
C[C@H](CCC(=O)O)[C@H]1CC[C@H]2[C@@H]3CC[C@@H]4C[C@H](O)CC[C@]4(C)[C@H]3CC[C@]12C [LITHOCHOLIC ACID] | 0.39 | – | 0.56 | 0.96 | 0.75 | 0.76 | 0.65 | – | 0.42 | 0.98 | 0.36 | 0.22 | 0.9 | 0.03 | 0.79 | – | 0.77 | 0.78 | 0.51 | 0.75 | Growth Rate (HEK-293T; [7]): 0.8; Growth Rate (HEK-293T; [8]): 0.75; Growth Rate (HEK-293T; [10]): 0.86; Growth Rate (Fibroblast; [8]): 0.62; Growth Rate (Fibroblast; [9]): 0.98; Growth Rate (Fibroblast; [10]): 0.78; Growth Rate (U2OS; [3]): 0.79; Growth Rate (U2OS; [6]): 0.96
